Assay results published in PubChem BioAssay (NCI).
“And” between values parts separate entries of the source, which are not always exact repeats. Equal entries are not always repeated.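 Five concentrations, 48 hours, 96-well plates. The concentration for 50% growth inhibition is given as GI50. TGI marks complete inhibition of growth.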

Key:
Experiment in all cases: DTP human tumour cell line panel, 48 h
CAKI-1 renal = tested on: CAKI-1 renal
HOP-92 NSCLC = tested on: HOP-92 NSCLC
K-562 leukemia = tested on: K-562 leukemia
OVCAR-3 ovarian = tested on: OVCAR-3 ovarian
OVCAR-8 ovarian = tested on: OVCAR-8 ovarian
RXF 393 renal = tested on: RXF 393 renal
SR leukemia = tested on: SR leukemia
UO-31 renal = tested on: UO-31 renal
DU-145 prostate = tested on: DU-145 prostate
SK-MEL-2 melanoma = tested on: SK-MEL-2 melanoma

| SMILES | TGI (CAKI-1 renal) | TGI (HOP-92 NSCLC) | TGI (K-562 leukemia) | TGI (OVCAR-3 ovarian) | TGI (OVCAR-8 ovarian) | TGI (RXF 393 renal) | TGI (SR leukemia) | TGI (UO-31 renal) | TGI (DU-145 prostate) | TGI (SK-MEL-2 melanoma) | GI50 (CAKI-1 renal) | GI50 (DU-145 prostate) | GI50 (HOP-92 NSCLC) | GI50 (K-562 leukemia) | GI50 (OVCAR-3 ovarian) | GI50 (OVCAR-8 ovarian) | GI50 (RXF 393 renal) | GI50 (SK-MEL-2 melanoma) | GI50 (UO-31 renal) |
| --- | --- | --- | --- | --- | --- | --- | --- | --- | --- | --- | --- | --- | --- | --- | --- | --- | --- | --- | --- |
| O=C(/C=C/c1ccccc1)Oc1cccc2cccnc12 | 83.2 µM | 81.6 µM | > 100 µM | 24.6 µM | > 62.2 µM | > 85.4 µM | > 100 µM | > 73 µM |  |  |  |  |  |  |  |  |  |  |  |
| O=C1C=CC(=O)c2c1ccc1c3ccccc3n(Cc3ccc([N+](=O)[O-])cc3)c21 | > 100 µM |  | 48.8 µM | > 100 µM | > 100 µM | > 100 µM | 37.3 µM | > 100 µM | > 100 µM |  |  |  |  |  |  |  |  |  |  |
| COC(=O)C1=CO[C@@H](OC2CC(CO)C(O)C(O)C2O)[C@@H]2[C@@H](C)[C@@H](OC(=O)/C=C/c3ccccc3)[C@@H](O)[C@H]12 (stereo partly drawn) (tested in a mixture with another compound) | > 100 µM | > 100 µM | > 100 µM | > 100 µM | > 100 µM |  | > 100 µM | > 100 µM |  |  |  |  |  |  |  |  |  |  |  |
| Cn1c(=O)nc2n(-c3ccc(O)cc3)c3ccccc3nc-2c1=O | > 100 µM | > 100 µM | > 100 µM | 64.2 µM | > 100 µM |  |  | > 100 µM |  | > 100 µM |  |  |  |  |  |  |  |  |  |
| C[N+](C)(C)CCC(=O)CC[N+](C)(C)C | 29.2 µM |  | 24.3 µM | 33.9 µM | 44 µM | 36 µM |  | > 100 µM |  | 66.1 µM |  |  |  |  |  |  |  |  |  |
| COC(=O)c1sc(C(=O)OC)c2c1CS(=O)C2 | > 100 µM | > 100 µM | > 100 µM | > 100 µM | > 100 µM | > 100 µM |  | > 100 µM |  | > 100 µM |  |  |  |  |  |  |  |  |  |
| N#CC(N)=Nc1ccccc1 | > 100 µM | > 100 µM | > 100 µM | > 100 µM | > 100 µM |  | > 100 µM | > 100 µM |  | > 100 µM |  |  |  |  |  |  |  |  |  |
| O=C1C2C3C=C4c5ccccc5N(c5ccccc5)C4(C2C(=O)N1c1ccccc1)C1C(=O)N(c2ccccc2)C(=O)C31 (stereo not drawn) | > 100 µM | 6.29 µM | > 100 µM |  | > 100 µM |  | > 100 µM | > 100 µM |  | > 100 µM |  |  |  |  |  |  |  |  |  |
| O=C(COc1ccccc1Cl)N1N=C(c2ccc(Cl)cc2)CC1(O)c1ccccc1 (stereo not drawn) | > 100 µM | > 100 µM | > 100 µM | > 100 µM | > 100 µM |  | > 100 µM | > 100 µM |  | > 100 µM |  |  |  |  |  |  |  |  |  |
| CC1=C(C(=O)Nc2ccccc2C)C(c2ccc(Cl)cc2)C(C(=O)Nc2ccccc2C)=C(C)N1 | > 100 µM | > 100 µM | > 100 µM | > 100 µM | > 100 µM | > 100 µM | > 100 µM | > 100 µM |  | > 100 µM |  |  |  |  |  |  |  |  |  |
| CCSCCCSCCSCC |  |  | > 100 µM | > 100 µM | > 100 µM |  |  | > 100 µM | > 100 µM |  |  |  |  |  |  |  |  |  |  |
| O=C(Oc1cccnc1)c1cccnc1Nc1ccnc(C(F)(F)F)c1 | 30.2 µM | > 100 µM | > 100 µM | 62.2 µM | > 100 µM | 80.4 µM |  | 81.5 µM | 42.1 µM | 62 µM | 4.73 µM | 15 µM | > 100 µM | 5.18 µM | 18.3 µM | 64.9 µM | 21.3 µM | 5.7 µM | 10 µM |
| CCC1(O)C(=O)OCc2c1cc1n(c2=O)Cc2cc3ccccc3nc2-1 (stereo not drawn) | > 31.9 µM | 23.9 µM | > 100 µM | 2.72 µM | 15.7 µM | 0.527 µM |  | 0.156 µM |  | 3.52 µM |  |  |  |  |  |  |  |  |  |
| Cc1c(/C=N/NC(=O)c2ccccc2O)c(=O)n(-c2ccccc2)n1C |  | > 100 µM | > 100 µM | > 100 µM | > 100 µM | > 100 µM | > 100 µM | > 100 µM |  | > 100 µM |  |  |  |  |  |  |  |  |  |
| O=C1/C(=C/c2ccc([N+](=O)[O-])cc2)CN(C(=O)CCN2CCC(=NO)CC2)C/C1=C\c1ccc([N+](=O)[O-])cc1 | 2.39 µM | 9.36 µM | > 60.9 µM | 2.31 µM | 5.5 µM | 3.14 µM |  | 2.55 µM | 4.65 µM | 16.6 µM | 0.756 µM | 1.61 µM | 2.81 µM | 0.216 µM | 0.801 µM | 0.806 µM | 1.49 µM | 4.74 µM | 1.14 µM |
| CCCN1C(=O)NC(=O)C(CC)(N2C(=O)c3c(F)c(F)c(F)c(F)c3C2=O)C1=O (stereo not drawn) | 3.75 µM | 3.37 µM | 4.55 µM | 3.16 µM | 7.81 µM | 4.45 µM |  | 4.32 µM | 3.27 µM | 8.32 µM | 1.86 µM | 1.7 µM | 1.68 µM | 1.73 µM | 1.69 µM | 2.54 µM | 2.28 µM | 2.95 µM | 1.63 µM |
| CCc1c(C#N)c(=O)[nH]c(=O)n1CCN1CCN(C(=O)NCCCCCCNC(=O)N2CCN(CCn3c(CC)c(C#N)c(=O)[nH]c3=O)CC2)CC1 | > 100 µM |  | > 100 µM | > 100 µM | > 100 µM |  |  |  |  |  |  |  |  |  |  |  |  |  |  |
| O=C1C[C@H]2CCCN2[C@@H](c2ccccc2)C1 | > 100 µM | > 100 µM | > 100 µM | > 100 µM | > 100 µM | > 100 µM |  | > 100 µM |  | > 100 µM |  |  |  |  |  |  |  |  |  |
| c1ccc(C2ONC3=NCCN32)cc1 (stereo not drawn) | > 100 µM |  | > 100 µM | 66.3 µM | > 100 µM | > 100 µM |  | > 100 µM | > 100 µM | > 100 µM | 36.1 µM | 62.1 µM |  | 16.1 µM | 20.5 µM | 44.6 µM | 82.9 µM | > 100 µM | 27.3 µM |
| COC1=NCc2ccccc2-c2ccccc21 |  |  | > 100 µM | > 100 µM | > 100 µM | > 100 µM |  | > 100 µM |  | > 100 µM |  |  |  |  |  |  |  |  |  |
| COc1ccc2nccc(C3=CCC4CCN(C(=O)c5ccccc5)C3C4)c2c1 (stereo not drawn) | > 100 µM | > 100 µM | > 100 µM | > 100 µM | > 100 µM | > 100 µM |  | > 100 µM |  | > 100 µM |  |  |  |  |  |  |  |  |  |
| Cc1ccc(S(=O)(=O)SC/C=C\CSS(=O)(=O)c2ccc(C)cc2)cc1 | 88.9 µM and 45.7 µM | > 72.7 µM and 37.9 µM | 25.2 µM and 64.9 µM | 78.8 µM and 56 µM | 46.8 µM and 33.9 µM | 77.1 µM and 36.6 µM |  | > 100 µM | > 66.9 µM | > 92.6 µM |  |  |  |  |  |  |  |  |  |
